Calls of active or inactive are those of the source. No cut-off for these calls is given here.
What was measured:
[1] = Inhibition of NF-kappaB-mediated transcriptional activity transfected in PMA-stimulated HEK293 cells after 24 hrs by luciferase reporter gene assay; type: cell-based; details: HEK293, 24 h
HEK293 [2] = experiment: Inhibition of MMP9 gene transcription in PMA-stimulated HEK293 cells after 24 hrs by luciferase reporter gene assay; type: functional, cell-based; details: Homo sapiens, HEK293, 24 h
THP-1 [3] = experiment: Inhibition of MMP9 secretion in PMA-stimulated human THP1 cells at 20 uM; type: functional, cell-based
THP-1 [4] = experiment: Cytotoxicity against human THP1 cells at 20 uM by MTT assay; type: functional, cell-based
HEK293 [5] = experiment: Cytotoxicity against HEK293 cells at 20 uM by MTT assay; type: cell-based; details: human, hek293, 20 µM

| IC50 [1] [µM] | Structure (SMILES) | IC50 (HEK293 [2]) [µM] | Activity (THP-1 [3]) | Activity (THP-1 [4]) | Activity (HEK293 [5]) |
| --- | --- | --- | --- | --- | --- |
| 7.4 | C=C1C(=O)O[C@H]2[C@H]1CC/C(C)=C\CC[C@@]1(C)O[C@@H]21 | 8.5 | Active | Not toxic | Non-toxic |
| 6 | C=C1C(=O)O[C@H]2[C@@H]3[C@@H](CC[C@@]3(C)O)[C@](C)(OC)CC[C@@H]12 | 8.6 | Active | Not toxic | Non-toxic |

Further lines, the molecule ahead of its results:

| Structure (SMILES) | IC50 [1] [µM] | IC50 (HEK293 [2]) [µM] | Activity (THP-1 [3]) | Activity (THP-1 [4]) | Activity (HEK293 [5]) |
| --- | --- | --- | --- | --- | --- |
| C=C1C(=O)O[C@H]2[C@@H]3[C@@H](CC[C@@]3(C)O)C(=C)CC[C@@H]12 | 8.8 | 6.6 | Active | Not toxic | Non-toxic |
| C=C1C(=O)O[C@@H]2C3O[C@]3(C)CC/C=C(\C)CC[C@@H]12 (stereo partly drawn) | 9.76 | 6.6 | Active | Not toxic | Non-toxic |
| C=C1C(=O)O[C@@H]2[C@@H](O)[C@]3(C)CC[C@H]3[C@](C)(OC)CC[C@@H]12 | 2.04 | 3.2 | – | Not toxic | Non-toxic |
| C=C1C(=O)O[C@@H]2[C@@H](O)[C@]3(C)CC[C@H]3[C@](C)(O)CC[C@@H]12 | 2.8 | 3.8 | – | Not toxic | Non-toxic |

Source: ChEMBL document CHEMBL1153356, “Inhibition of NF-kB and metalloproteinase-9 expression and secretion by parthenolide derivatives” (Bioorg Med Chem Lett, 2009)
